Results from patent US11730722B2, “Corneal endothelium ECM therapeutic medicaments” (KYOTO PREFECTURAL PUBLIC UNIVERSITY CORPORATION, priority 2013, dated 2023).

Columns and labels:
Type in all cases: cell-based, human
[1] = test system: iFECD; test: Real-time PCR of gene expression with TGF-beta signal inhibiting agent SB431542; settings: SB431542 0, 1, 3, 10 μM, FIG. 7, p<0.01
Protocol: Real-time PCR method: In addition, PCR was performed by a Taqman method for Snail1, Snail2, or ZEB1 in accordance with the following method. A Taqman probe was purchased from INVITROGEN. The mRNA amount of collagen type I, collagen type IV, and Fibronectin was examined by a real-time PCR method. RNEasy (QIAGEN, Catalog number: 74106) was used in extraction of the total RNA from cells. The extracted RNA was subjected to a reverse transcription reaction (42° C., 60 minutes) with ReverTra Ace (TOYOBO Co., Ltd., Catalog number: TRT-101), and collagen type I, collagen type IV, and Fibronectin were amplified with a reaction reagent TaqMan Fast Advanced mastermix (Applied Biosystems) using GAPDH as an internal standard. Probes (a labeled primer set available from Applied Biosystems) described below was used in the PCR reaction, which was performed in the StepOne™ (Applied Biosystems) real-time PCR system. It was then examined whether a TGF-beta signal inhibiting agent, SB431542, can be used to inhibit a TGF-beta signal and adjust extracellular matrix abnormality in a corneal endothelium. SB431542 was obtained from TOCRIS Corporation (Catalog number: 1614). The gene expression amount was confirmed by real-time PCR. Real-time PCR was carried out in accordance with the above-described examples. The following probes were used for collagen type I, collagen type IV, collagen type VIII, and Fibronectin. Collagen type I Hs00164004_ml COL1A1 Collagen type IV Hs00266327_ml COL4A1 Collagen type VIII Hs00697025_ml COL8A2 Fibronectin Hs01549976_ml FN1 GAPDH TaqMan® pre developed Assay Reagents Human GADPH (cat no.: 4333764F)

[2] = test system: iFECD; test: HE-staining of extracellular matrix on Transwell with SB431542; settings: iFECD on Transwell without serum, fixed one week later; FIG. 9; p<0.01
Protocol: The iHCEC and the iFECD were cultured in DMEM on Transwell without serum, one week after which they were fixed in a confluent state and HE-stained. The procedure is as described below. If required, deparaffinization (for example, with pure ethanol) and water washing were carried out, and the sample was immersed in hematoxylin from Omni for 10 minutes. Thereafter, water washing with running water was performed, and ammonia water was used for developing color for 30 seconds. Thereafter, water washing with running water for 5 minutes, staining for 2 minutes with a ten-fold diluted solution of eosin hydrochloride, dehydration, lucidification, and mounting were performed. […] Further, the iHCEC and the iFECD were cultured on Transwell Permeable Supports: 0.4 μm, six well plates (Costar, Cat no.: 3450) without serum, one week after which they were fixed in a confluent state and HE-stained. The HE-staining was carried out in accordance with the procedure of the above-described examples.

[3] = test system: iFECD; test: Immunostaining of extracellular matrix-constituting proteins with SB431542; settings: FIG. 8
Protocol: For a tissue staining test, cultured cells were put in Lab-TekTM Chamber SlidesTM (NUNC A/S, Roskilde, Denmark), fixed with 4% formaldehyde for 10 minutes at room temperature (RT), and incubated with 1% bovine serum albumin (BSA) for 30 minutes. […] In order to examine expression of an extracellular matrix produced by cells, a 1:200 dilution of each of antibodies against collagen type I, collagen type IV, and Fibronectin was used to carry out. For a secondary antibody, a 1:2000 dilution of Alexa Fluor (registered trademark) 488 labeled, or Alexa Fluor (registered trademark) 594 labeled goat anti-mouse IgG (Life Technologies) was used. Cell nuclei were then stained with DAPI (Vector Laboratories, Inc., Burlingame, Calif.) or PI (Sigma-Aldrich). A slide was then observed under a fluorescence microscope (TCS SP2 AOBS; Leica Microsystems, Welzlar, Germany). Then, expression of collagen type I, collagen type IV, and Fibronectin was similarly examined by immunostaining. The immunostaining was carried out in accordance with the above-described examples, provided that the following antibodies were used as antibodies for collagen type I, collagen type IV, and Fibronectin. An antibody against collagen type I: Anti collagen type I (Rabbit polyclonal) ([…] antibodies and assays, Cat no.: 600-401-103S) An antibody against collagen type IV: collagen type IV (Rabbit polyclonal)(Abcam, Cat no.: ab6586) An antibody against Fibronectin: Anti-fibronectin (mouse monoclonal) (BD Biosciences, Cat no.: 610077)

Compound: NC(=O)c1ccc(-c2nc(-c3ccc4c(c3)OCO4)c(-c3ccccn3)[nH]2)cc1 [SB431542, 4-[4-(1,3-benzodioxol-5-yl)-5-(2-pyridinyl)-1H-imidazol-2-yl]benzamide]
- expression amount of Snail1 (real-time PCR) [1]: significant decrease
- expression amount of ZEB1 (real-time PCR) [1]: significant decrease
- gene expression of Fibronectin (real-time PCR) ([1]; iFECD): significantly suppressed
- gene expression of collagen type I (real-time PCR) ([1]; iFECD): significantly suppressed
- gene expression of collagen type IV (real-time PCR) ([1]; iFECD): significantly suppressed
- gene expression of collagen type VIII (real-time PCR) ([1]; iFECD): significantly suppressed
- overproduction of an extracellular matrix (thickness, HE-staining) [2]: suppressed overproduction of an extracellular matrix in the iFECD to result in the normal level
- expression of Fibronectin in a protein level (immunostaining) [3]: suppressed
- expression of collagen type I in a protein level (immunostaining) [3]: suppressed
- expression of collagen type IV in a protein level (immunostaining) [3]: suppressed
- expression of collagen type VIII in a protein level (immunostaining) [3]: suppressed
